The EC50 is the concentration that produces a half-maximal response. Read a low EC50 as an effect from little substance.

The structures appear in SMILES notation.

From patent publication US20230041738A1, “1H-PYRAZOLO[4,3-d]PYRIMIDINE COMPOUNDS AS TOLL-LIKE RECEPTOR 7 (TLR7) AGONISTS” (BRISTOL-MYERS SQUIBB COMPANY, priority 2020, published 2023) come the findings set out here.

One experiment deals with T1, human TLR7 (Homo sapiens, UniProt Q9NYK1).
T1 construct: host or cells: HEK-Blue TLR7 cells (engineered human embryonic kidney cells)
T1 sequence (Q9NYK1 27-1049): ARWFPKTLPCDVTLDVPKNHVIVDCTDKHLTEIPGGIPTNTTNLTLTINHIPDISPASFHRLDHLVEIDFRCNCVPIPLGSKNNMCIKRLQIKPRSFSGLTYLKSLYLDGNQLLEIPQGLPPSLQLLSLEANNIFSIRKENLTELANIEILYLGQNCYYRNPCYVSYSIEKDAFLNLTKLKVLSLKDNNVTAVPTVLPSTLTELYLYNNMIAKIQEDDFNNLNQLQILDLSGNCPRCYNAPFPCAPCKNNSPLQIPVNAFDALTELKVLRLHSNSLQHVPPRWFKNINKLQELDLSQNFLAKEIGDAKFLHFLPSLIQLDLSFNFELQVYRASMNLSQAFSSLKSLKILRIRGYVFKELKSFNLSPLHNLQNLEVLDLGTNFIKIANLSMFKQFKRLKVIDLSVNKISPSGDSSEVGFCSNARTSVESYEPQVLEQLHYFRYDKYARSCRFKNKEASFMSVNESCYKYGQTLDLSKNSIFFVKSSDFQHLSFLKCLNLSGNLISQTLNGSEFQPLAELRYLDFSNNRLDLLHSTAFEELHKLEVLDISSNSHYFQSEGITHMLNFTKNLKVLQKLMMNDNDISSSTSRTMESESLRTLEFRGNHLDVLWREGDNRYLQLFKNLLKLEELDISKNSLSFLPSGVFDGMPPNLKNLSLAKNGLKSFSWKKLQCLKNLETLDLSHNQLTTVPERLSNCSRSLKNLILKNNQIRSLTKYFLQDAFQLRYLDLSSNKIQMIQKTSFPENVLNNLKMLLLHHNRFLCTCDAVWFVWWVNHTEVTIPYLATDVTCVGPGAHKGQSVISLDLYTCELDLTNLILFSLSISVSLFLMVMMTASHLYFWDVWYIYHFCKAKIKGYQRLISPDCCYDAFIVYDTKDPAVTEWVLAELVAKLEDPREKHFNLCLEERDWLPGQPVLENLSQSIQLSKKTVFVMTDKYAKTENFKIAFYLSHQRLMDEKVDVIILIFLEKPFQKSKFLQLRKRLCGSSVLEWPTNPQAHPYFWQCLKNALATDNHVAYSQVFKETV
Nature of the experiment: Human TLR7 agonist activity assay (hTLR7 reporter, HEK-Blue TLR7 cells, SEAP). The class given is cell-based. As to conditions: HEK-Blue TLR7 cells with SEAP reporter, 18 h treatment; average where assay performed multiple times. On the procedure: This procedure describes a method for assaying human TLR7 (hTLR7) agonist activity of the compounds disclosed in this specification.
HEK-Blue™ TLR7 cells were added to each well of a 384-well tissue-culture plate (15,000 cells per well) and incubated 16-18 h at 37° C., 5% CO2. Compounds (100 nl) were dispensed into wells containing the HEK-Blue™ TLR cells and the treated cells were incubated at 37° C., 5% CO2. After 18 h treatment ten microliters of freshly-prepared Quanti-Blue™ reagent (Invivogen) was added to each well, incubated for 30 min (37° C., 5% CO2) and SEAP levels measured using an Envision plate reader (OD=620 nm). The half maximal effective concentration values (EC50; compound concentration which induced a response halfway between the assay baseline and maximum) were calculated.

For another experiment, the system named is CD69. Nature of the experiment: Induction of CD69 in human whole blood (hWB). The class given is cell-based. The conditions noted are these: 17 hrs at 37 C, CD69 surface staining, 100% set to 1 uM resiquimod, average where performed multiple times. On the procedure: The induction of Type I interferon (IFN) MX-1 genes and the B-cell activation marker CD69 are downstream events that occur upon activation of the TLR7 pathway. The following is a human whole blood assay that measures their induction in response to a TLR7 agonist.
Heparinized human whole blood was harvested from human subjects and treated with test TLR7 agonist compounds at 1 mM. The blood was diluted with RPMI 1640 media and Echo was used to predot 10 nL per well giving a final concentration of 1 uM (10 nL in 10 uL of blood). After mixing on a shaker for 30 sec, the plates were covered and placed in a 37° C. chamber for o/n=17 hrs. Fixing/lysis buffer was prepared (5×→1× in H2O, warm at 37° C.; Cat #BD 558049) and kept the perm buffer (on ice) for later use.
For surface markers staining (CD69): prepared surface Abs: 0.045 ul hCD14-FITC (ThermoFisher Cat #MHCD1401)+0.6 ul hCD19-ef450 (ThermoFisher Cat #48-0198-42)+1.5 ul hCD69-PE (cat #BD555531)+0.855 ul FACS buffer. Added 3 ul/well, spin1000 rpm for 1 min and mixed on shaker for 30 sec, put on ice for 30 mins. Stop stimulation after 30 min with 70 uL of prewarmed 1× fix/lysis buffer and use Feliex mate to resuspend (15 times, change tips for each plate) and incubate at 37C for 10 min.
Centrifuge at 2000 rpm for 5 min aspirate with HCS plate washer, mix on shaker for 30 sec and then wash with 70 uL in dPBS and pelleted 2× s (2000 rpm for 5 min) and 50 ul wash in FACS buffer pelleted 1×s(2000 rpm for 5 min). Mix on shaker for 30 sec. For Intracellular markers staining (MX-1): Add 50 ul of BD Perm buffer III and mix on shaker for 30 sec. Incubate on ice for 30 min (in the dark). Wash with 50 uL of FACS buffer 2× (spin @2300 rpm×5 min after perm) followed by mixing on shaker for 30 sec. Resuspended in 20 ul of FACS buffer containing MX1 antibody ( )(4812)-Alexa 647: Novus Biologicals #NBP2-43704AF647) 20 ul FACS bf+0.8 ul hlgG+0.04 ul MX-1. Spin 1000 rpm for 1 min, mix on shaker for 30se and the samples were incubated at RT in the dark for 45 min followed by washing 2× FACS buffer (spin @2300 rpm×5 min after perm). Resuspend 20 ul (35 uL total per well) of FACS buffer and cover with foil and place in 4° C. to read the following day. Plates were read on iQuePlus. The results were loaded into toolset and IC50 curves are generated in curve master. The y-axis 100% is set to 1 uM of resiquimod.

`CCC[C@@H](CCO)Nc1nc(N)nc2cnn(Cc3ccc(C(=O)N4C[C@H]5C[C@@H]4CN5C)cc3OC(F)F)c12` [Compound 125, (3S)-3-[(5-amino-1-{[2-(difluoro-methoxy)-4-[(1R,4R)-5-methyl-2,5-diazabicyclo[2.2.1]heptane-2-carbonyl]phenyl]methyl}-1H-pyrazolo[4,3-d]pyrimidin-7-yl)amino]hexan-1-ol] came in with an EC50 on human TLR7 of 301 nM.

In turn, `CCC[C@@H](CCO)Nc1nc(N)nc2cnn(Cc3ccc(CNC4[C@H]5COC[C@@H]45)cc3OC)c12` (stereo partly drawn) [Compound 107, (3S)-3-[(5-amino-1-{[2-methoxy-4-({[(1R,5S,6S)-3-oxabicyclo[3.1.0]-hexan-6-yl]amino}methyl)phenyl]-methyl}-1H-pyrazolo[4,3-d]pyrimidin-7-yl)amino]hexan-1-ol] came in with a concentration giving a half-maximal response (EC50) at human TLR7 of 5.3 nM.

`CCC[C@@H](CCO)Nc1nc(N)nc2cnn(Cc3ccc(C(=O)N4C[C@H]5CN(C)C[C@H]5C4)cc3OC(F)F)c12` [Compound 124, (3S)-3-{[1-({4-[(3aR,6aS)-5-methyl-octahydropyrrolo[3,4-c]pyrrole-2-carbonyl]-2-(difluoromethoxy)-phenyl}methyl)-5-amino-1H-pyra-zolo[4,3-d]pyrimidin-7-yl]amino}-hexan-1-ol]: it took 82 nM to reach a half-maximal effect at human TLR7 (EC50).

Regarding `COc1cc(CN2C[C@H]3C[C@@H]2CN3C)ccc1Cn1nc(C)c2nc(N)nc(NCc3cc(C)on3)c21` [Compound 128, 1-[(2-methoxy-4-{[(1R,4R)-5-methyl-2,5-diazabicyclo[2.2.1]-heptan-2-yl]methyl}phenyl)-methyl]-3-methyl-N7-[(5-methyl-1,2-oxazol-3-yl)methyl]-1H-pyra-zolo[4,3-d]pyrimidine-5,7-diamine], the EC50 in the experiment with CD69 was 28 nM; at human TLR7, 74.4 nM.

For `CCC[C@@H](CCO)Nc1nc(N)nc2cnn(Cc3cnc(CN4C[C@@H]5C[C@H]4CN5)cc3OC)c12` [Compound 134, (3S)-3-({5-amino-1-[(6-{[(1S,4S)-2,5-diazabicyclo[2.2.1]heptan-2-yl]methyl}-4-methoxypyridin-3-yl)methyl]-1H-pyrazolo[4,3-d]pyrimidin-7-yl}amino)hexan-1-ol], the EC50 is 22.4 nM in the experiment on CD69 and 354 nM at human TLR7. The corresponding values for `CCCCNc1nc(N)nc2c(C)nn(Cc3ccc(C(=O)N4C[C@H]5C[C@@H]4CN5C)cc3OC)c12` [Compound 114, N7-butyl-1-({2-methoxy-4-[(1R,4R)-5-methyl-2,5-diazabicyclo-[2.2.1]heptane-2-carbonyl]phenyl}-methyl)-3-methyl-1H-pyrazolo[4,3-d]pyrimidine-5,7-diamine] are 15.4 nM and 120 nM. `CCCCNc1nc(N)nc2cnn(Cc3ccc(CN4C[C@H]5CN(C)C[C@H]5C4)cc3OC)c12` [Compound 103, 1-[(4-{[(3aR,6aS)-5-methyl-octa-hydropyrrolo[3,4-c]pyrrol-2-yl]methyl}-2-methoxyphenyl)methyl]-N7-butyl-1H-pyrazolo[4,3-d]pyrimidine-5,7-diamine]: the EC50 on human TLR7 is 27.8 nM. Same read-out and setting: as for `CCC[C@@H](CCO)Nc1nc(N)nc2cnn(Cc3ccc(CN[C@H]4C[C@H]5COC[C@H]54)cc3OC)c12` [Compound 108, (3S)-3-[(5-amino-1-{[2-methoxy-4-({[(1R,5R,6S)-3-oxabicyclo-[3.2.0]heptan-6-yl]amino}methyl)phenyl]methyl}-1H-pyrazolo-[4,3-d]pyrimidin-7-yl)amino]hexan-1-ol], the figure is 4.9 nM.

As to `COc1cc(CN2C[C@@H]3C[C@H]2CN3CCO)ccc1Cn1nc(C)c2nc(N)nc(NCc3noc(C)n3)c21` [Compound 142, 2-[(1S,4S)-5-({4-[(5-amino-3-methyl-7-{[(5-methyl-1,2,4-oxadiazol-3-yl)methyl]amino}-1H-pyrazolo-[4,3-d]pyrimidin-1-yl)methyl]-3-methoxyphenyl}methyl)-2,5-diaza-bicyclo[2.2.1]heptan-2-yl]ethan-1-ol], the EC50 at human TLR7 turned out to be 1230 nM.

`CCC[C@@H](CCO)Nc1nc(N)nc2cnn(Cc3ccc(CN4C[C@@H]5OCC[C@@H]54)cc3OC)c12` [Compound 109, (3S)-3-({5-amino-1-[(2-methoxy-4-{[(1S,5S)-2-oxa-6-azabicyclo-[3.2.0]heptan-6-yl]methyl}phenyl)-methyl]-1H-pyrazolo[4,3-d]pyrimidin-7-yl}amino)hexan-1-ol]: a half-maximal effect on human TLR7 (EC50) was put at 2.2 nM. This EC50 lies about 560-fold lower than the previous one. On the same count and under the same terms, as for `CCCCNc1nc(N)nc2cnn(Cc3ccc(CN4C[C@H]5CCS(=O)(=O)[C@H]5C4)cc3OC)c12` [Compound 104, (3aR,6aR)-5-[(4-{[5-amino-7-(butyl-amino)-1H-pyrazolo[4,3-d]pyrimidin-1-yl]methyl}-3-methoxyphenyl)methyl]-hexahydro-2H-1λ6-thieno[2,3-c] pyrrole-1,1-dione], the figure is 197 nM. Regarding `CCC[C@@H](CCO)Nc1nc(N)nc2cnn(Cc3ccc(CN4C[C@@H]5C[C@H]4CN5C(C)=O)cc3OC)c12` [Compound 101, 1-[(1S,4S)-5-({4-[(5-amino-7-{[(3S)-1-hydroxyhexan-3-yl]amino}-1H-pyrazolo[4,3-d]pyrimidin-1-yl)methyl]-3-methoxypheyl}-methyl)-2,5-diazabicyclo[2.2.1]-heptan-2-yl]ethan-1-one], a half-maximal response at human TLR7 (EC50) required 28.8 nM.

In the case of `COc1cc(CNC23CC(C2)C3)ccc1Cn1ncc2nc(N)nc(NCc3cc(C)on3)c21` [Compound 126, 1-({4-[({bicyclo[1.1.1]pentan-1-yl}amino)methyl]-2-methoxy-phenyl}methyl)-N7-[(5-methyl-1,2-oxazol-3-yl)methyl]-1H-pyra-zolo[4,3-d]pyrimidine-5,7-diamine], the midpoint of the response on human TLR7, the EC50, lay at 287 nM. This EC50 lies about 10-fold higher than the previous one. The same measure, in the same setting: to `CCCCNc1nc(N)nc2cnn(Cc3ccc(CN4C5CNCC4C5)cc3OC)c12` [Compound 102, N7-butyl-1-{[4-({3,6-diazabicyclo-[3.1.1]heptan-6-yl}methyl)-2-methoxyphenyl]methyl}-1H-pyrazolo-[4,3-d]pyrimidine-5,7-diamine] belongs 89.6 nM.
